Measured values from publication PMC6151961 (Journal of Enzyme Inhibition and Medicinal Chemistry, 2018).
Where two headings read alike, the source gives them in different places.

Target: CA IX (Homo sapiens, UniProt Q16790)
Test: biochemical
Settings: for Ki: read-out: pKi (exp.) (converted)
[1] = library compounds with IDs A… and B…, from observed Ki (nM)
[2] = experimental value from the library Ki (IDs A…, B…), values equal log10 of Ki in nM
[3] = experimental value used for the QSPR model, library compounds (IDs A…, B…), equals log10 of Ki in nM

For `COc1ccc2c(c1)/C(=N\c1ccc(NC(=O)Nc3ccc(S(N)(=O)=O)cc3)cc1)C(=O)N2` [B0174], the “log10 of Ki in nM” value [1] was 0.929.

With `CCOC(=O)NC(=S)N(CC(=O)c1ccccc1)c1ccc(S(N)(=O)=O)cc1` [A0977] the “log10 of Ki in nM” value [2] was 1.398.

In the case of `NS(=O)(=O)c1ccc(-n2cc(CO[C@@H]3O[C@H](COCc4ccccc4)[C@@H](OCc4ccccc4)[C@H]3OCc3ccccc3)nn2)cc1` [A1497], the “log10 of Ki in nM” value [1] is reported as 1.924.

`Cc1cc(=O)oc2cc(-n3cc(CSc4ccccc4)nn3)ccc12` [A1053] was tested, and the “log10 of Ki in nM” value [1] was 1.471.

With `CCCCCOS(N)(=O)=O` [A1675] the “log10 of Ki in nM” value was 2.100.

With `NS(=O)(=O)c1ccc(OCCN2CCOCC2)cc1` [A0728] the “log10 of Ki in nM” value [3] was 1.100.

With `NS(=O)(=O)c1ccc(-c2cn([C@@H]3O[C@H](CO)[C@@H](O)[C@H](O)[C@H]3O)nn2)cc1` [A1466] the “log10 of Ki in nM” value was 1.897.

In the case of `NS(=O)(=O)c1ccc(NCc2cc(Br)ccc2O)cc1` [A0114], the “log10 of Ki in nM” value [2] is reported as 0.415.

In the case of `N#Cc1c(-c2ccc(Br)cc2)cn(-c2ccc(S(N)(=O)=O)cc2)c1NC(=S)Nc1ccc(Br)cc1` [A1551], the “log10 of Ki in nM” value [3] is reported as 1.960.

`CCOc1nc(NCCc2ccc(S(N)(=O)=O)cc2)nc(OCC)n1` [A0719] was tested, and the “log10 of Ki in nM” value was 1.079.

With `CC(=O)OC[C@H]1O[C@@H](SCc2nnn(-c3ccc(S(N)(=O)=O)cc3)c2C#CCO)[C@H](OC(C)=O)[C@@H](OC(C)=O)[C@@H]1OC(C)=O` [A1422] the “log10 of Ki in nM” value [3] was 1.857.

With `O=NCc1c(O)ccc(-c2ccc(O)cc2)c1Cl` [B0828] the “log10 of Ki in nM” value [3] was 3.780.

In the case of `Cc1cccc(Nc2nc(Cl)nc(Nc3ccc(S(N)(=O)=O)cc3)n2)c1` [A0317], the “log10 of Ki in nM” value [3] is reported as 0.708.

In the case of `NS(=O)(=O)c1ccc(NC(=O)c2ccc(/N=C3\C(=O)Nc4ccc(F)cc43)cc2)cc1` [A0310], the “log10 of Ki in nM” value [1] is reported as 0.699.

With `Nc1c(C(=O)N/N=C2\C(=O)N(Cc3ccccc3)c3ccccc32)cnn1-c1ccc(S(N)(=O)=O)cc1` [A0861] the “log10 of Ki in nM” value was 1.301.

`CCOC(=O)c1cc(S(N)(=O)=O)c(SSc2cc(Cl)c(C(=O)OCC)cc2S(N)(=O)=O)cc1Cl` [A2456] was tested, and the Ki was 10000 nM.

With `NS(=O)(=O)c1ccc(NC(=S)N[C@@H]2O[C@H](CO)[C@H](O)[C@H](O)[C@H]2O)cc1` [A0430] the “log10 of Ki in nM” value [2] was 0.845.

In the case of `NS(=O)(=O)c1ccc2nc(-n3cc(C=O)c(-c4ccc(F)cc4)n3)sc2c1` [A2181], the “log10 of Ki in nM” value [3] is reported as 3.009.

With `NS(=O)(=O)c1ccc(NC(=O)N2CCN(CCO)CC2)cc1` [A1995] the “log10 of Ki in nM” value [2] was 2.639.

`NS(=O)(=O)c1ccc(CNC(=S)N[C@@H]2O[C@H](CO)[C@@H](O)[C@H](O)[C@H]2O)cc1` [A0577] was tested, and the “log10 of Ki in nM” value was 0.944.

`CC(C)(C)OC(=O)N(CCCCN(CCCNC(=O)C(F)(F)F)C(=O)OC(C)(C)C)CCCNC(=O)C(F)(F)F` [A2554] was tested, and the “log10 of Ki in nM” value [1] was 5.093.

With `C#CCOc1ccc(S(N)(=O)=O)cc1` [A0523] the “log10 of Ki in nM” value [3] was 0.914.

For `CC(=O)N1C(=O)/C(=N\n2cnc3c(c(-c4ccc(Br)cc4)cn3-c3ccc(S(N)(=O)=O)cc3)c2=N)c2ccccc21` [B0037], the “log10 of Ki in nM” value [3] was 0.491.

In the case of `NOC(=O)c1cc(Cl)c(Cl)c(C(=O)ON)c1` [B0452], the “log10 of Ki in nM” value is reported as 1.699.

In the case of `CC(=O)NNc1ccccc1S(N)(=O)=O` [A1755], the “log10 of Ki in nM” value is reported as 2.243.

`COc1ccc2c(=O)n(-c3ccc(S(N)(=O)=O)cc3)c(S)nc2c1` [B0440] was tested, and the “log10 of Ki in nM” value was 1.653.

Work on `CC(C)CCC[C@@H](C)[C@H]1CC[C@@H]2[C@@H]1CC[C@H]1[C@H]2CC=C2C[C@@H](OS(N)(=O)=O)CC[C@@]21C` [A2177] yielded a Ki [1] of 1000 nM.

For `NS(=O)(=O)c1ccc(OCc2ccc(F)cc2)cc1` [A0463], the “log10 of Ki in nM” value was 0.869.

In the case of `NS(=O)(=O)c1ccc(CNC(=O)Cc2ccccc2)cc1` [A1701], the “log10 of Ki in nM” value [1] is reported as 2.134.

`COc1ccc2c(c1)/C(=N\NC(=O)c1cnn(-c3ccc(S(N)(=O)=O)cc3)c1-c1ccccc1)C(=O)N2` [B0041] was tested, and the “log10 of Ki in nM” value [1] was 0.519.

With `CC(=O)OC[C@H]1O[C@@H]([S+]([O-])Cc2cn(-c3ccc(S(N)(=O)=O)cc3)nn2)[C@H](OC(C)=O)[C@@H](OC(C)=O)[C@H]1OC(C)=O` (stereo partly shown) [B0152] the “log10 of Ki in nM” value was 0.886.

In the case of `Cc1ccc(-n2c(=S)[nH]c3c(c(-c4ccc(Br)cc4)cn3-c3ccc(S(N)(=O)=O)cc3)c2=N)cc1` [A1740], the “log10 of Ki in nM” value [3] is reported as 2.210.

For `CCCN(CCC)S(=O)(=O)c1ccc(C(=O)N[C@@H](CCSC)C(N)=O)cc1` [A0860], the “log10 of Ki in nM” value [1] was 1.301.

`O=S1(=O)C=Cc2cc(-n3nncc3-c3cccc(C(F)(F)F)c3)ccc2O1` [A0646] was tested, and the “log10 of Ki in nM” value [1] was 0.982.
